From US9708247B2, “Modulators of the eIF2alpha pathway” (The Regents of the University of California, priority 2013, dated 2017)

What was measured:
[1] = Toxicity in mice; type: in vivo
[2] = test system: CHOP; experiment: CHOP immunofluorescence in U2OS cells; type: cell-based, human; conditions: 100 nM thapsigargin 2 h, 200 nM ISRIB
Method: FIGS. 4A-4B. ISRIB impairs induction of the transcriptional network controlled by ATF4; (FIG. 4A) ER-stress dependent induction of CHOP and GADD34 mRNA is impaired in cells treated with ISRIB; qPCR analysis of total RNA extracted from U2OS cells treated with 2 μg/ml of tunicamycin in the presence or absence of 200 nM ISRIB for the indicated times; mRNA levels for each sample were normalized to GAPDH (N=4); P values are derived from a one tail Student's t-test for unpaired samples; statistical significance: CHOP, P=0.0006 (*); GADD34, P=0.0008 (*); (FIG. 4B) ISRIB blocks CHOP production during ER stress; an immunofluorescence analysis of U2OS cells treated with 100 nM thapsigargin for 2 h in the presence or absence of 200 nM ISRIB is shown; a secondary Alexa Dye 488 anti-mouse antibody and rhodamine-phalloidin were used to visualize CHOP and actin, respectively.
U2OS cells were seeded on Slide Flasks (Thermo Scientific) 18 h prior to processing for immunofluorescence. Cells (60% confluent) were fixed with 4% paraformaldehyde in PBS for 15 min. The cells were then rinsed 3 times with PBS and permeabilized with 0.3% Triton X-100. The fixed cells were rinsed 3 times with PBS and blocked for 1 h at room temperature in PBS supplemented with 0.1% Triton X-100 and 5% normal goat serum. […]

[3] = test system: RPMI8226 cells; experiment: Polysome gradient analysis in RPMI8226 cells; type: cell-based, human; conditions: ER-stressed (5 μg/ml tunicamycin) and un-stressed cells, 1 μM ISRIB
[4] = test system: hippocampal-dependent memory; experiment: Trace fear conditioning after surgery (postsurgical cognitive dysfunction); type: in vivo, mouse; conditions: mice, perioperative administration, postoperative day three
Source text: FIG. 26. Experimental design for measuring postsurgical cognitive dysfunction and effects of ISRIB on cognitive function; measurement of memory is a behavioral test using trace fear conditioning (TFC), which aims to establish a permanent memory in animals by using sensorial information; associative learning is presented with a neutral conditioning stimulus, paired with an aversive unconditioning stimulus (e.g. shock); freezing by the animal corresponds to the ability of the animal to retain memory from the context in which it has been trained. Separate cohorts of animals were used to assess inflammatory status 24 h after surgery. Downwards arrows represent injection points. FIG. 27. […] Control animals were given vehicle solution.

[5] = test system: PERK signaling (ATF4, PERK, XBP1s); experiment: Immunoblot analysis of PERK, ATF4 and XBP1s in HEK293T cells; type: cell-based, human
Method: Cells were lysed in SDS-PAGE loading buffer (1% SDS, 62.5 mM Tris-HCl pH 6.8, 10% glycerol). Lysates were sonicated and equal amounts were loaded on SDS-PAGE gels (BioRad). Proteins were transferred onto nitrocellulose and probed with primary antibodies diluted in Tris-buffered saline supplemented with 0.1% Tween 20 and 5% bovine serum albumin. The following antibodies were used: CREB-2 (C-20) (1:800) (Santa Cruz Biotechnologies); PERK (D11A8) (1:1000), PERK (C33E10) (1:1000), eIF2α (9722) (1:1000), phospho-eIF2α (Ser51) (D9G8) XP (3398) (1:1000) (Cell Signaling Technology); XBP1s (C-terminus) (1:500) (BioLegend); M2 Flag (1:1000) (Sigma). An HRP-conjugated secondary antibody (Amersham) was employed to detect immune-reactive bands using enhanced chemiluminescence (SuperSignal, Thermo Scientific).

[6] = mouse, in vivo, ip, 5 mg/kg
Method: Intra-peritoneal (ip), and intra-venous (iv) routes of administration were performed on 6-7 wk old female CD-1 mice (Harlan Laboratories). Animals received a single, 5 mg/kg dose in groups of three mice/compound/route of administration. […] Blood (80 ul) was collected from the saphenous vein at intervals post-dosing (20 min, 1 h, 3 h, 8 h, 24 h) in EDTA containing collection tubes (Sarstadt CB300) and plasma was prepared for analysis. Compounds were detected by time-of-flight mass spectroscopy.

[7] = test system: eIF2α (S51D); experiment: Polysome gradient analysis in HEK293Trex cells expressing eIF2α(S51D); type: cell-based, human; conditions: 25 nM doxycycline 14 h, 200 nM ISRIB
Method: The coding sequences of wild type mouse eIF2α, phosphomimetic (S51D) mutant was amplified by PCR from a mammalian expression vector (kind gift of David Ron). BamHI and EcoRI recognition sites were engineered into the primers. In addition a Kozak consensus sequence and a N-terminal FLAG epitope tag were engineered in the forward primer. […]. Mouse Embryonic Fibroblasts (MEFs) or TREx-293 cells expressing eIF2α(S51D) were seeded on 150 mm plates and allowed to grow to 80% confluence. Cells were then induced with 25 nM doxycycline for 14 h and subsequently treated with the appropriate compounds for the indicated times. 100 μg/ml of cycloheximide was added to the cells for 1 min before lysis. Cells were washed twice with PBS supplemented with 100 μg/ml cycloheximide and subsequently lysed in 20 mM Tris pH 7.4, 200 mM NaCl, 15 mM MgCl, 1 mM DTT, 8% Glycerol, 100 μg/ml cycloheximide, 1% Triton X-100 and EDTA-free protease inhibitor tablets (Roche). Cells were scraped, collected, triturated with a 25^7/8 gauge needle, and the homogenate was centrifuged for 10 min at 10,000×g. The supernatant was loaded on a 10-50% sucrose gradient and sedimented in a SW40 rotor at 150,000×g for 2.4 h. The gradients were fractionated using a piston gradient fractionator (BioComp) and UV absorbance at 254 nm was monitored using a UV-Monitor (BioRad).

O=C(COc1ccc(Cl)cc1)NC1CCC(NC(=O)COc2ccc(Cl)cc2)CC1 (centres unmarked) [ISRIB]
toxicity [1]: no overt toxicity | CHOP accumulation after induction of ER stress [2]: no CHOP accumulation | translation in multiple myeloma cells [3]: increased translation | memory impairment after surgery (freezing) [4]: mitigated memory impairment after surgery | XBP1 mRNA splicing and XBP1s production (IRE1 branch) ([5]; ER stress plus 200 nM ISRIB): persisted | PERK phosphorylation (mobility shift) ([5]; ER-stressed HEK293T, 200 nM ISRIB): did not inhibit the mobility shift of PERK | ATF4 induction after GCN2 or HRI activation ([5]; HEK293T, cysteine/methionine starvation or HRI activator 6 μM, 5 h, 200 nM ISRIB): blocked ATF4 induction | production of endogenous ATF4 upon ER stress ([5]; HEK293T, tunicamycin or thapsigargin, 200 nM ISRIB, 3 h): blocked production of endogenous ATF4 | AUC [6]: 3318 ng·h/mL | CLt [6]: 8.318 mL/h | F % [6]: 13.8% | T½ [6]: 8.43 h | Vd [6]: 96.0261 mL | translational attenuation by eIF2α(S51D) expression [7]: rescued translation
